Biological target: T1, human FXR (Homo sapiens, UniProt Q96RI1)
T1 construct: expressed in transfected cells; host or cells: HEK293 cells stably carrying a 5xGal4 response element-luciferase reporter, transiently transfected with pcDNA3.1-Gal4-FXR
T1 sequence (Q96RI1 262-486 limits assumed): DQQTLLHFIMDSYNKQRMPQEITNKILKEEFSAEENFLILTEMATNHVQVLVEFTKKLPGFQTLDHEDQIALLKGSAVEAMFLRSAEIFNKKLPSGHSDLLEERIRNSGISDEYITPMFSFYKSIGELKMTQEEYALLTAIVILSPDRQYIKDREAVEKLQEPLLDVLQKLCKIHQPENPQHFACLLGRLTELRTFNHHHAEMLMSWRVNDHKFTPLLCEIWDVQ
Assay: transient human FXR/Gal4-luciferase reporter assay
Format: cell-based
Conditions: Gal4-hFXR fusion construct, luciferase reporter in HEK293 cells; overnight incubation; response as percentage of 8 μM GW-4064 control
How it was run: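 HEK293 cells stably carrying a 5×Gal4-response-element firefly luciferase reporter were transiently transfected with a Gal4 DBD-human FXR LBD fusion, then treated overnight with compounds at 37 °C. Steady-Glo luminescence, minus DMSO background, was expressed as percent of the response to 8 μM GW-4064.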

SMILES	EC50 [nM]
N#Cc1cccc(N(CC23CCC(c4noc(C(F)(F)F)n4)(CC2)CC3)C(=O)C2CCOCC2)c1 [Example 116, N-(3-cyanophenyl)-N-((4-(5-(trifluoromethyl)-1,2,4-oxadiazol-3-yl)bicyclo[2.2.2]octan-1-yl)methyl)tetrahydro-2H-pyran-4-carboxamide]	518
C[C@]1(O)C[C@@H](C(=O)N(CC23CCC(c4noc(C(F)(F)F)n4)(CC2)CC3)c2cccc(C#N)c2)C1 [Example 117, (1S,3S)-N-(3-cyanophenyl)-3-hydroxy-3-methyl-N-((4-(5-(trifluoromethyl)-1,2,4-oxadiazol-3-yl)bicyclo[2.2.2]octan-1-yl)methyl)cyclobutane-1-carboxamide]	1350
CC(C)(C)c1nc(C23CCC(CN(C(=O)C45CC(F)(C4)C5)c4cccc(Oc5ncc(OC(F)F)cn5)c4)(CC2)CC3)no1 [Example 118, N-((4-(5-(tert-butyl)-1,2,4-oxadiazol-3-yl)bicyclo[2.2.2]octan-1-yl)methyl)-N-(3-((5-(difluoromethoxy)pyrimidin-2-yl)oxy)phenyl)-3-fluorobicyclo[1.1.1]pentane-1-carboxamide]	361
CC(C)(C)c1nc(C23CCC(CN(C(=O)C45CC(F)(C4)C5)c4cccc(Oc5ccc(OC(F)F)cn5)c4)(CC2)CC3)no1 [Example 119, N-((4-(5-(tert-butyl)-1,2,4-oxadiazol-3-yl)bicyclo[2.2.2]octan-1-yl)methyl)-N-(3-((5-(difluoromethoxy)pyridin-2-yl)oxy)phenyl)-3-fluorobicyclo[1.1.1]pentane-1-carboxamide]	536
CC(F)(F)c1nc(C23CCC(CN(C(=O)C45CC(F)(C4)C5)c4cccc(C(=O)O)c4)(CC2)CC3)no1 [Example 120, 3-(N-((4-(5-(1,1-difluoroethyl)-1,2,4-oxadiazol-3-yl)bicyclo[2.2.2]octan-1-yl)methyl)-3-fluorobicyclo[1.1.1]pentane-1-carboxamido)benzoic acid]	4000
CC(C)(C)c1noc(C23CCC(CN(C(=O)C45CC(F)(C4)C5)c4ccc(F)c(C(N)=O)c4)(CC2)CC3)n1 [Example 121, N-((4-(3-(tert-butyl)-1,2,4-oxadiazol-5-yl)bicyclo[2.2.2]octan-1-yl)methyl)-N-(3-carbamoyl-4-fluorophenyl)-3-fluorobicyclo[1.1.1]pentane-1-carboxamide]	412
CCNC(=O)c1cc(N(CC23CCC(c4nc(C(C)(C)C)no4)(CC2)CC3)C(=O)C23CC(F)(C2)C3)ccc1F [Example 122, N-((4-(3-(tert-butyl)-1,2,4-oxadiazol-5-yl)bicyclo[2.2.2]octan-1-yl)methyl)-N-(3-(ethylcarbamoyl)-4-fluorophenyl)-3-fluorobicyclo[1.1.1]pentane-1-carboxamide]	123
CC(C)Oc1cccc(N(CC23CCC(c4nc(C(C)(C)C)no4)(CC2)CC3)C(=O)[C@H]2C[C@](O)(C(F)(F)F)C2)c1 [Example 123, (1S,3S)—N-((4-(3-(tert-butyl)-1,2,4-oxadiazol-5-yl)bicyclo[2.2.2]octan-1-yl)methyl)-3-hydroxy-N-(3-isopropoxyphenyl)-3-(trifluoromethyl)cyclobutane-1-carboxamide]	2000
CC(C)Oc1cccc(N(CC23CCC(c4nc(C(C)(C)C)no4)(CC2)CC3)C(=O)C23CC(F)(C2)C3)c1 [Example 124, N-((4-(3-(tert-butyl)-1,2,4-oxadiazol-5-yl)bicyclo[2.2.2]octan-1-yl)methyl)-3-fluoro-N-(3-isopropoxyphenyl)bicyclo[1.1.1]pentane-1-carboxamide]	2000
CC(C)Oc1cccc(N(CC23CCC(c4noc(C(C)(F)F)n4)(CC2)CC3)C(=O)[C@H]2C[C@@](C)(O)C2)c1 [Example 125, (1S,3S)—N-((4-(5-(1,1-difluoroethyl)-1,2,4-oxadiazol-3-yl)bicyclo[2.2.2]octan-1-yl)methyl)-3-hydroxy-N-(3-isopropoxyphenyl)-3-methylcyclobutane-1-carboxamide]	1520
CC(C)Oc1cccc(N(CC23CCC(c4noc(C(C)(F)F)n4)(CC2)CC3)C(=O)[C@H]2C[C@](O)(C(F)(F)F)C2)c1 [Example 126, (1S,3S)-N-((4-(5-(1,1-difluoroethyl)-1,2,4-oxadiazol-3-yl)bicyclo[2..2.2]octan-1-yl)methyl)-3-hydroxy-N-(3-isopropoxyphenyl)-3-(trifluoromethyl)cyclobutane-1-carboxamide]	610
CC(C)Oc1cccc(N(CC23CCC(c4noc(C(C)(F)F)n4)(CC2)CC3)C(=O)C23CC(F)(C2)C3)c1 [Example 127, N-((4-(5-(1,1-difluoroethyl)-1,2,4-oxadiazol-3-yl)bicyclo[2.2.2]octan-1-yl)methyl)-3-fluoro-N-(3-isopropoxyphenyl)bicyclo[1.1.1]pentane-1-carboxamide]	156
CC(C)(C)c1noc(C23CCC(CN(C(=O)C45CC(F)(C4)C5)c4ccc(F)c(C(C)(C)O)c4)(CC2)CC3)n1 [Example 128, N-((4-(3-(tert-butyl)-1,2,4-oxadiazol-5-yl)bicyclo[2.2.2]octan-1-yl)methyl)-3-fluoro-N-(4-fluoro-3-(2-hydroxypropan-2-yl)phenyl)bicyclo[1.1.1]pentane-1-carboxamide]	4000
COc1cccc(N(CC23CCC(c4noc(C(C)(F)F)n4)(CC2)CC3)C(=O)C23CC(F)(C2)C3)c1 [Example 129, N-((4-(5-(1,1-difluoroethyl)-1,2,4-oxadiazol-3-yl)bicyclo[2.2.2]octan-1-yl)methyl)-3-fluoro-N-(3-methoxyphenyl)bicyclo[1.1.1]pentane-1-carboxamide]	73
CCOc1cccc(N(CC23CCC(c4noc(C(C)(F)F)n4)(CC2)CC3)C(=O)C23CC(F)(C2)C3)c1 [Example 130, N-((4-(5-(1,1-difluoroethyl)-1,2,4-oxadiazol-3-yl)bicyclo[2.2.2]octan-1-yl)methyl)-N-(3-ethoxyphenyl)-3-fluorobicyclo[1.1.1]pentane-1-carboxamide]	91
CC(F)(F)c1nc(C23CCC(CN(C(=O)NC[C@H](F)C(C)(C)O)c4cccc(Br)c4)(CC2)CC3)no1 [Example 131, (S)-1-(3-bromophenyl)-1-((4-(5-(1,1-difluoroethyl)-1,2,4-oxadiazol-3-yl)bicyclo[2.2.2]octan-1-yl)methyl)-3-(2-fluoro-3-hydroxy-3-methylbutyl)urea]	228
CC(C)(C)c1noc(C23CCC(CN(C(=O)C45CC(F)(C4)C5)c4cccc(Br)c4)(CC2)C3)n1 [Example 132, N-(3-bromophenyl)-N-((4-(3-(tert-butyl)-1,2,4-oxadiazol-5-yl)bicyclo[2.2.1]heptan-1-yl)methyl)-3-fluorobicyclo[1.1.1]pentane-1-carboxamide]	498
CC(C)(C)c1noc(C23CCC(CN(c4cccc(Br)c4)C(=O)[C@H]4C[C@](O)(C(F)(F)F)C4)(CC2)C3)n1 [Example 133, (1s, 3s)-N-(3-bromophenyl)-N-((4-(3-(tert-butyl)-1,2,4-oxadiazol-5-yl)bicyclo[2.2.1]heptan-1-yl)methyl)-3-hydroxy-3-(trifluoromethyl) cyclobutane-1-carboxamide]	4000
CC(C)(F)c1nc(C23CCC(CN(C(=O)C45CC(C(C)(C)O)(C4)C5)c4cccc(Br)c4)(CC2)CC3)no1 [Example 134, N-(3-bromophenyl)-N-((4-(5-(2-fluoropropan-2-yl)-1,2,4-oxadiazol-3-yl)bicyclo[2.2.2]octan-1-yl)methyl)-3-(2-hydroxypropan-2-yl)bicyclo[1.1.1]pentane-1-carboxamide]	434

Reference: patent US12319676B2, “Substituted amide compounds useful as farnesoid X receptor modulators” (BRISTOL-MYERS SQUIBB COMPANY, priority 2019, dated 2025)
